From patent US7439251B2, “Methods and compositions for treatment of central and peripheral nervous system disorders and novel compounds useful therefor” (Israel Institute for Biological Research, priority 2002, dated 2008)
Substitutions are numbered along the chain they refer to. Where two headings read alike, the source gives them in different places.

Assays:
[1] = Plasma levels of AF267B and its metabolite AF292 in dogs given AF267B (single dose and 13 weeks); format: in vivo, Beagle dog
Source text: Internal Standard (AF261): 2-Methyl-8-methyl-1-thia-4,8-diaza-spiro[4.5]decan-3-one; MW 200. The analytical plasma samples originate from the in-life part of this study.

M1 mAChR = molecular target: T1, M1 mAChR (Rattus norvegicus, UniProt P08482); assay: α-APPs secretion in cell cultures stably transfected with M1 mAChR; format: cell-based; conditions: for α-APPs secretion (% of max CCh): maximal response vs 10^−4 M carbachol
T1 construct: expressed in transfected cells
T1 sequence (P08482 1-460): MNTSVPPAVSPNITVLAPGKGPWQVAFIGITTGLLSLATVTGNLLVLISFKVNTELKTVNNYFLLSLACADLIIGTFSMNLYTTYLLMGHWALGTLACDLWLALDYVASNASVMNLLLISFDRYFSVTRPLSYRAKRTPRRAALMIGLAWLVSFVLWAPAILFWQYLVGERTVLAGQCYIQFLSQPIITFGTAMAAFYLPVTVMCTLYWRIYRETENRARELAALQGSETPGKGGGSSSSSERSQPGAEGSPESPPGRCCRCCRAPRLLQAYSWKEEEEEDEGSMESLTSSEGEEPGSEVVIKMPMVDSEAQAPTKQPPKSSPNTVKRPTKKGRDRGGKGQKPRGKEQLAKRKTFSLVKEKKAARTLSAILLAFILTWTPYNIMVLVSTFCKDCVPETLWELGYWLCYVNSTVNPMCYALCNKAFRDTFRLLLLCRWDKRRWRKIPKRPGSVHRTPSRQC
Protocol: Cells were plated in 6 well culture plates and used at the age of 3-5 days after plating. […] Cells exposed to medium alone are referred as controls.
Cell supernatants were collected into Eppendorff tubes containing a cocktail of protease intubitors (5 units/ml aprotinin, […], 5 mg/ml leupeptin and 10^−4 M Phenylmethylsulfonylfluoride (PMSF, a protease inhibitor); Sigma, USA). The collected media were concentrated with Centricon tubes (Amicon, Beverly, Mass., USA) and kept frozen for α-APPs secretion determination. Equal amounts of protein (50-100 μg) were loaded and separated on 10% sodium dodecyl sulfate-polyacrylamide gel electrophoresis (SDS-PAGE) Followed by western blotting onto nitrocellulose membrane, blocked by fat-free milk, and probed for 24 hours at 4° C., with anti-Alzheimer's precursor protein, A4 monoclonal antibody 22C11 (0.25 μg/ml; Boehringer Mannheim, Germany). The nitrocellulose membranes were washed and incubated for 2 hours at room temperature with peroxidase-linked goat anti-mouse IgG antibodies (Jackson Immunoresearch, USA), followed by extensive washout and staining with enhanced chemiluminescence detection system (Amersham). Quantitative evaluation of the immunoreactive bands, on the exposed films, was performed by video-imaging densitometry (Gel-aid software; Galai Co., Israel). APPs levels were expressed as x-fold increase over basal levels.

APPs secretion = APPs secretion in rat primary hippocampal, cortical and spinal cord cultures; format: cell-based; conditions: 100 μM, 1 h
[2] = system: rat pheochromocytoma cells transfected with M1 mAChR; assay: Neurite outgrowth in rat pheochromocytoma cells transfected with M1 mAChR; format: cell-based; conditions: 24 hrs, without neurotrophins
Protocol: For determination of neurite outgrowth, cells plated in six-well plates were used 3-5 days after plating. Growth factors were added 1 day after plating and muscarinic agonists were added for the last 24 hrs.
Cells were observed under an inverted microscope. The percent of cells with neurite longer than cell diameter were scored in three random fields of several hundred cells from each well. Results were expressed as a percent of cells with neurites. Treatments were performed in triplicate cells. Both NGF (50 ng/ml) and EGF (100 ng/ml) were added 1 day after plating. Muscarinic agonists were added 24 hours before scoring.

tau = assay: tau-1 immunoreactivity in primary cell cultures (western blot); format: cell-based, rat; conditions: cortical and hippocampal cultures, 1-100 μM
Protocol: Primary cell cultures were grown as described in EXAMPLE 38. Cell supernatants were removed and the cells were washed once in medium prior to the addition of cold phosphate buffre saline ph=7.4 (PBS) solution containing 0.2 mM EDTA. Cells were scraped using a rubber policeman, transferred to Eppendorf tubes, and centrifuged at 4° C. Cell pellets were resuspended in lysis buffer (EDTA 5 mM, Tris 50 mM, Triton 1%, NaCl 150 mM) containing protease inhibitors (5 units/ml apronitin, […] and 0.1 mM PMSF, Sigma) and subjected to centrifugation at 4° C. Supernatants were transferred into Eppendorf tubes and kept at −20° C. till analyzed. The extent of tau-1 immunoreactivity (an antibody that recognizes a non-phosphorylated tau at Ser^199) was determined by western blots.

human M1 receptor = molecular target: T2, human M1 receptor (Homo sapiens, UniProt P11229); assay: PI hydrolysis, human M1; format: cell-based
T2 construct: expressed in transfected cells
T2 sequence (P11229 1-460): T1 sequence (P08482 1-460) with V5A, S254T, S309P, K320R, G337A, V413I

rat M1 mAChR = rat M1 mAChR (Rattus norvegicus, UniProt P08482); assay: PI turnover, rat M1 mAChR; format: cell-based
[3] = Morris water maze in aged rats; format: in vivo, rat; conditions: for reversal learning: AF267B 1 mg/kg, AF292 1 and 0.5 mg/kg po
Source text: Old (22-24 months old) and young (three months old) Sprague-Dawley rats had been tested in the MWM.

[4] = Pharmacokinetic study in rats; format: in vivo, rat; conditions: for bioavailability: rat, plasma, Rats, po, read-out: Bioavailability (% F)
Source text: The results of the PK profile of AF292 in rats and Beagle dogs (overnight fasting; drug administered in water solution; gavage) are listed in Table 1.

[5] = system: rat pheochromocytoma cells transfected with the M1 mAChR
[6] = dogs, after 13 weeks daily AF267B 1.5, 3, 6 mg/kg po
[7] = female dogs, 13 weeks AF267B 1.5, 3, 6 mg/kg p.o.
[8] = female dogs, single dose (1×) of AF267B 1.5, 3, 6 mg/kg p.o.
[9] = male dogs, 13 weeks AF267B 1.5, 3, 6 mg/kg p.o.
[10] = male dogs, single dose (1×) of AF267B 1.5, 3, 6 mg/kg p.o.

## CC[C@@H]1SC2(CCN(C)CC2)NC1=O [AF267B, (S)-2-ethyl-8-methyl-1-thia-4,8-diaza-spiro[4.5]decan-3-one]
[1]; [6]
  AUC(0-t): 712 to 3947 ng·h/mL
  Cmax: 162 to 1352 ng/mL
  Tmax: 1.5 to 3 h
  plasma half life: 1 to 2 h
[1]; female dogs, 13 weeks
  MRT (area): 3.6 to 5.2 h
[1]; [7]
  AUC(0-inf): 1033 to 4164 ng·h/mL
[1]; female dogs, single dose (1×)
  MRT (area): 4.7 to 5.3 h
[1]; [8]
  AUC(0-inf): 985 to 3179 ng·h/mL
[1]; male dogs, 13 weeks
  MRT (area): 3.0 to 4.2 h
[1]; [9]
  AUC(0-inf): 1041 to 4471 ng·h/mL
[1]; male dogs, single dose (1×)
  MRT (area): 3.8 to 5 h
[1]; [10]
  AUC(0-inf): 800 to 3691 ng·h/mL
M1 mAChR
  α-APPs secretion, comparison in words: more efficacious and more potent than its racemate
M1 mAChR; 10^−4 M, 1 hour
  α-APPs secretion, fold increase over control: about 6 fold
APPs secretion
  APPs secretion, fold over control: 2.8 fold
[2]
  Maximal neurite outgrowth response (percent of cells with neurites): 60%
tau
  tau-1 immunoreactivity (non-phosphorylated tau): effective in elevating tau immunoreactivity
Human M1 receptor
  PI turnover vs. CCh (as 100%): ~66%
Rat M1 mAChR
  PI turnover vs. CCh (as 100%): PI, rat M1 mAChR: 75%
[3]
  swimming ability: no significant effect on the swimming ability
  reversal learning: improved significantly the reversal learning
[3]; 1 mg/kg
  learning: tendency for improvement
[4]; calculated for 2 mg/kg
  bioavailability: 30%
[5]
  H2O2-induced toxicity: protect the cells
  cell death induced by β-A25-35 (MTT): significantly attenuated

## CC1=NCC2(CCN(C)CC2)S1 [AF150(S), 2,8-Dimethyl-1-thia-3,8-diaza-spiro[4.5]dec-2-ene]
M1 mAChR
  α-APPs secretion (% of max CCh): 50%
APPs secretion
  APPs secretion, fold over control: 2.8 fold
[2]
  Maximal neurite outgrowth response (percent of cells with neurites): 30%
tau
  tau-1 immunoreactivity (non-phosphorylated tau): effective in elevating tau immunoreactivity
[4]
  biovailability in rats: 31%
[5]
  H2O2-induced toxicity: protect the cells
  cell death induced by β-A25-35 (MTT): significantly attenuated

## CC[C@@H]1SC2(CCNCC2)NC1=O [AF292, (S)-2-Ethyl-1-thia-4,8-diaza-spiro[4.5]decan-3-one]
[1]; dogs
  Cmax vs. the Cmax of AF267B: 50-90%
  T1/2 in plasma, times longer than AF267B: 3-5 times
[1]; [6]
  AUC(0-t): 616 to 2451 ng·h/mL
  Cmax: 136 to 555 ng/mL
  plasma half life: 9 to 20 h
[1]; female dogs, 13 weeks
  MRT (area): 5.1 to 33.7 h
[1]; [7]
  AUC(0-inf): F(13 w): 1866-12723; M(13 w): ng * h/ml
[1]; female dogs, single dose (1×)
  MRT (area): 8.7 to 18.7 h
[1]; [8]
  AUC(0-inf): F (1×): outlier, 3901-4840; M (1×): ng * h/ml
[1]; male dogs
  Elimination half life, Mean T½ (M): Mean T½ (M) = 6.34 +/− 5.9; h
[1]; male dogs, 13 weeks
  MRT (area): 5 to 7.8 h
[1]; [9]
  AUC(0-inf): 1609 to 4170 ng·h/mL
[1]; male dogs, single dose (1×)
  MRT (area): 5 to 27.3 h
[1]; [10]
  AUC(0-inf): 1142 to 10932 ng·h/mL
M1 mAChR
  α-APPs secretion, comparison in words: Equipotent with AF267B
  α-APPs secretion (% of max CCh): 100%
Human M1 receptor
  PI turnover vs. CCh (as 100%): ~35%
Rat M1 mAChR
  PI turnover vs. CCh (as 100%): PI, rat M1 mAChR; 50%
[3]
  reversal learning: did not reach significance
[3]; both doses (1 and 0.5 mg/kg po)
  probe trial, spatial bias: tendency for partial spatial bias
[4]; 10 mg/kg, p.o.
  bioavailability: 49%
[4]
  biovailability in rats: 49%
[5]
  H2O2-induced toxicity: protect the cells
  MTT assay against Aβ 25-35 & H2O2 in cell cultures transfected with rat M1 mAChR: Equipotent with AF267B & CCh at 100
  cell death induced by β-A25-35 (MTT): significantly attenuated
